Measured values taken from article PMC9396645 (Frontiers in Chemistry, 2022).
Like-named read-outs stand apart in the source and are kept apart here. One block for each molecule: values may come before it.

Experiments:
C4-2 cells = assay: Internalization efficiency / specific cell uptake in C4-2 cells; assay type: cell-based, human
Method: The specific internalization ratio was determinated in 24-well plates. The plates were previously coated with 0.1% poly-L-lysine in PBS for 20 min and washed with PBS once. C4-2 cells (10^5 cells per analysis) were added to each well and equilibrated overnight. The cells were incubated for 45 min with 250 µL of a 30 nM solution of the ^68Ga-labeled compounds either in a water bath at 37°C or on ice. The PSMA-receptor-blocking agent 2-(phosphonomethyl)pentanedioic acid (2-PMPA; 500 μM; Axxora) was used to verify the specificity of the cellular uptake of the novel compounds. The cells were washed thrice (using 1 ml of ice-cold PBS), followed by an incubation with 0.5 ml of a glycine solution (50 mM in HCl at a pH of 2.8) for 5 min, washed once with 1 ml of ice-cold PBS, and finally lysed with 0.5 ml of 0.3 M NaOH. The lysate was collected, and the radioactivity was measured in a gamma-counter. Triplicate measurements were performed for all experiments.

[1] = system: C4-2 tumor bearing BALB/c nu/nu mice; assay: Small-animal PET imaging in C4-2 tumor bearing mice; assay type: in vivo, mouse; conditions: mean SUV from PET, 2 h p.i.
Source text: (§1) Athymic male nude mice (BALB/c nu/nu) were purchased from Charles River at 4‒5 weeks of age (19–23 g). The mice were kept under pathogen-free conditions for 1 week prior to the study. The mice had free access to water and food and were housed with a 12-h/12-h light/dark cycle. The xenografts required for positron emission tomography (PET) imaging and biodistribution studies were obtained by inoculation of 5 × 10^7 C4-2 cells in 50% Matrigel in Opti-MEM I (1 ×) medium. For this purpose, the mice were anesthetized with 2% sevoflurane, and inoculation was performed subcutaneously on the right trunk. When the size of the tumor was approximately 1 cm^3, the studies were performed.
For small-animal PET imaging, the different ^68Ga-labeled PSMA ligands (0.5 nmol, 20 MBq in approximately 100 µL 0.9% saline) were injected into C4-2 tumor bearing mice. The dynamic PET was recorded in a small animal PET scanner (Siemens Inveon D-PET). The standardized uptake values (SUVs) were obtained from conventional (non-dynamic) PET images. The formula for the SUV was SUV=activity in ROI (Bq/ml) × animal weight (g)/injected dose(Bq)
Manual delineation of the respective appropriate whole organ (heart, kidneys, bladder, tumor, with an approximate volume of 100–500 µL) yielded the volumes of interest (VOIs). For this purpose, whole organs or parts of the organ/tissue (liver and muscle) were used. The images were reconstructed based on the procedure: OSEM 3D/SP MAP with 16 subsets, two iterations, and an image x-y size: 256, image z size: 161. The data were not modified with a post-processing filter. Analysis of the images and time-activity curves (TACs) was conducted on the Inveon™ Acquisition Workplace (IAW) from Siemens IRW 4.1. […] […] The mean SUVs were plotted over time in order to compare the different radiotracers.

prostate cancer patients [2] = assay: PSMA-PET/CT of prostate cancer patients; assay type: in vivo, human; conditions: patient PET/CT, 20 nmol
Method: Diagnostic PSMA-PET/computed tomography (CT) examinations were performed 1 and 3 h after antecubital injection of 339 MBq/20 nmol ^68Ga-CA028 or 295 MBq/20 nmol ^68Ga-CA030 per patient, respectively. The method for assessing the biodistribution was performed as previously described by Afshar-Oromieh et al. ([Afshar-Oromieh et al., 2015b]). Applying the clinical standard software Syngo (Siemens), which was used to define the VOIs in the PET images, the activity distributions of the source organs was determined. This reference ([Afshar-Oromieh et al., 2015b]) was also used as a standard of reference for ^68Ga-PSMA-617 (Table 3).

[3] = system: C4-2 tumor bearing BALB/c nu/nu mice; assay: Biodistribution (organ distribution) in C4-2 tumor-bearing mice; assay type: in vivo, mouse; conditions: tumor bearing mice, n = 3
Source text: as §1
Based on the results of the PET imaging, ^68Ga-CA028 and ^68Ga-CA030, the most promising compounds, were chosen for biodistribution studies in C4-2 tumor-bearing mice. The labeled compound (0.05 nmol, 20 MBq) was administered to the mice via tail vein injection. Animals were sacrificed and organs were harvested at the following time points: 20 min, 1, 2, and 4 h p.i. The organs were dissected and weighed, the activity was measured with a γ-counter, and the % ID/g was calculated.

prostate cancer patients [4] = system: prostate cancer patients; parameters: method as in earlier work; conditions: patients PET/CT, ref Afshar-Oromieh et al. (2015a) and Afshar-Oromieh et al. (2015b), cited from earlier work
[5] = ^68Ga-labeled compounds 30 nM, 45 min, 37°C, specificity by 2-PMPA 500 μM, mean ± SD (n = 3)

SMILES: O=C(O)CC[C@H](NC(=O)N[C@@H](CCCCNC(=O)[C@H](Cc1ccc2ccccc2c1)NC(=O)[C@H]1CC[C@H](CNC(=O)CN2CCN(CC(=O)O)CCN(CC(=O)O)CCN(CC(=O)O)CC2)CC1)C(=O)O)C(=O)O [PSMA-617, reference compound]
specific internalization in C4-2 cells (C4-2 cells; Table 2): 15.6 % ID/10^6 cells
Specific cell surface (C4-2 cells; [5]): 45.18 ± 3.61 %IA/10^6cells
Specific lysate (internalization) (C4-2 cells; [5]): 15.55 ± 3.07 %IA/10^6 cells

tumor-to-kidney ratio [1]: 0.52
SMILES: O=C([O-])CN1CCN(CC(=O)[O-])CCN(C(CCC(=O)NCc2ccc(NC(=S)NCC3CCC(C(=O)NC(Cc4ccc5ccccc5c4)C(=O)NCCCCC(NC(=O)NC(CCC(=O)O)C(=O)O)C(=O)O)CC3)cc2)C(=O)O)CCN(CC(=O)[O-])CC1.[68Ga+3] (stereo not shown) [^68Ga-CA029]
Specific lysate (internalization) (C4-2 cells; [5]): 44.3 ± 3.9 %IA/10^6 cells

SUV mean Bone metastasis (prostate cancer patients [2]; first listed bone metastasis, 1 h p.i.): 27.2
SUV mean Bone metastasis (prostate cancer patients [2]; first listed bone metastasis, 3 h p.i.): 37.7
SUV mean Blood pool, mediastinal (prostate cancer patients [2]; 1 h p.i.): 5.6
SUV mean Colon (prostate cancer patients [2]; 1 h p.i.): 4.9
SUV mean Gluteal muscle (prostate cancer patients [2]; 1 h p.i.): 0.8
SUV mean Kidneys (prostate cancer patients [2]; 1 h p.i.): 13.4
SUV mean Lacrimal gland (prostate cancer patients [2]; 1 h p.i.): 7.1
SUV mean Liver (prostate cancer patients [2]; 1 h p.i.): 5.8
SUV mean Nasal mucosa (prostate cancer patients [2]; 1 h p.i.): 3.3
SUV mean Parotid gland (prostate cancer patients [2]; 1 h p.i.): 6.1
SUV mean Proximal small intestine (prostate cancer patients [2]; 1 h p.i.): 4.1
SUV mean Spleen (prostate cancer patients [2]; 1 h p.i.): 7.2
SUV mean Sublingual gland (prostate cancer patients [2]; 1 h p.i.): 4.1
SUV mean Submandibular gland (prostate cancer patients [2]; 1 h p.i.): 8.7
SUV mean Blood pool, mediastinal (prostate cancer patients [2]; 3 h p.i.): 4.5
SUV mean Colon (prostate cancer patients [2]; 3 h p.i.): 4.7
SUV mean Gluteal muscle (prostate cancer patients [2]; 3 h p.i.): 0.7
SUV mean Kidneys (prostate cancer patients [2]; 3 h p.i.): 16.5
SUV mean Lacrimal gland (prostate cancer patients [2]; 3 h p.i.): 9.0
SUV mean Liver (prostate cancer patients [2]; 3 h p.i.): 5.9
SUV mean Nasal mucosa (prostate cancer patients [2]; 3 h p.i.): 3.8
SUV mean Parotid gland (prostate cancer patients [2]; 3 h p.i.): 6.7
SUV mean Proximal small intestine (prostate cancer patients [2]; 3 h p.i.): 5.0
SUV mean Spleen (prostate cancer patients [2]; 3 h p.i.): 6.1
SUV mean Sublingual gland (prostate cancer patients [2]; 3 h p.i.): 4.9
SUV mean Submandibular gland (prostate cancer patients [2]; 3 h p.i.): 11.3
SUV mean Bone metastasis (prostate cancer patients [2]; second listed bone metastasis, 1 h p.i.): 30.9
SUV mean Bone metastasis (prostate cancer patients [2]; second listed bone metastasis, 3 h p.i.): 32.6
SUV mean Bone metastasis (prostate cancer patients [2]; third listed bone metastasis, 1 h p.i.): 31.0
SUV mean Bone metastasis (prostate cancer patients [2]; third listed bone metastasis, 3 h p.i.): 33.1
tumor-to-kidney ratio [1]: 0.33
Organ distribution Blood ([3]; 20 min): 4.33 ± 0.51 % ID/g
Organ distribution Brain ([3]; 20 min): 0.08 ± 0.01 % ID/g
Organ distribution Heart ([3]; 20 min): 1.29 ± 0.30 % ID/g
Organ distribution Kidneys ([3]; 20 min): 63.89 ± 5.72 % ID/g
Organ distribution Liver ([3]; 20 min): 1.04 ± 0.18 % ID/g
Organ distribution Lung ([3]; 20 min): 2.63 ± 0.89 % ID/g
Organ distribution Muscle ([3]; 20 min): 1.39 ± 1.30 % ID/g
Organ distribution Small intestine ([3]; 20 min): 1.00 ± 0.38 % ID/g
Organ distribution Spleen ([3]; 20 min): 8.37 ± 0.47 % ID/g
Organ distribution Tumor ([3]; 20 min): 5.17 ± 1.48 % ID/g
Organ distribution Blood ([3]; 1 h): 3.59 ± 1.52 % ID/g
Organ distribution Brain ([3]; 1 h): 0.08 ± 0.02 % ID/g
Organ distribution Heart ([3]; 1 h): 1.03 ± 0.36 % ID/g
Organ distribution Kidneys ([3]; 1 h): 46.39 ± 23.44 % ID/g
Organ distribution Liver ([3]; 1 h): 1.52 ± 0.61 % ID/g
Organ distribution Lung ([3]; 1 h): 2.74 ± 0.72 % ID/g
Organ distribution Muscle ([3]; 1 h): 0.63 ± 0.21 % ID/g
Organ distribution Small intestine ([3]; 1 h): 0.92 ± 0.37 % ID/g
Organ distribution Spleen ([3]; 1 h): 2.86 ± 1.86 % ID/g
Organ distribution Tumor ([3]; 1 h): 5.36 ± 2.21 % ID/g
Organ distribution Blood ([3]; 2 h): 1.42 ± 0.61 % ID/g
Organ distribution Brain ([3]; 2 h): 0.04 ± 0.02 % ID/g
Organ distribution Heart ([3]; 2 h): 0.40 ± 0.09 % ID/g
Organ distribution Kidneys ([3]; 2 h): 20.19 ± 7.92 % ID/g
Organ distribution Liver ([3]; 2 h): 0.81 ± 0.15 % ID/g
Organ distribution Lung ([3]; 2 h): 1.08 ± 0.42 % ID/g
Organ distribution Muscle ([3]; 2 h): 0.28 ± 0.03 % ID/g
Organ distribution Small intestine ([3]; 2 h): 0.75 ± 0.06 % ID/g
Organ distribution Spleen ([3]; 2 h): 1.39 ± 0.47 % ID/g
Organ distribution Tumor ([3]; 2 h): 4.31 ± 0.30 % ID/g
Organ distribution Blood ([3]; 4 h): 0.39 ± 0.14 % ID/g
Organ distribution Brain ([3]; 4 h): 0.01 ± 0.00 % ID/g
Organ distribution Heart ([3]; 4 h): 0.16 ± 0.05 % ID/g
Organ distribution Kidneys ([3]; 4 h): 6.17 ± 0.82 % ID/g
Organ distribution Liver ([3]; 4 h): 0.50 ± 0.14 % ID/g
Organ distribution Lung ([3]; 4 h): 0.34 ± 0.10 % ID/g
Organ distribution Muscle ([3]; 4 h): 0.17 ± 0.02 % ID/g
Organ distribution Small intestine ([3]; 4 h): 0.21 ± 0.09 % ID/g
Organ distribution Spleen ([3]; 4 h): 0.48 ± 0.09 % ID/g
Organ distribution Tumor ([3]; 4 h): 2.69 ± 0.88 % ID/g
SMILES: O=C([O-])CN1CCN(CC(=O)[O-])CCN(CC(=O)O)C(Cc2ccc(NC(=S)NCC3CCC(C(=O)NC(Cc4ccc5ccccc5c4)C(=O)NCCCCC(NC(=O)NC(CCC(=O)O)C(=O)O)C(=O)O)CC3)cc2)CN(CC(=O)[O-])CC1.[68Ga+3] (stereo not shown) [^68Ga-CA030]
Specific lysate (internalization) (C4-2 cells; [5]): 53.8 ± 5.4 %IA/10^6 cells

SMILES: O=C([O-])CN1CCN(CC(=O)[O-])CCN(CC(=O)NCC2CCC(C(=O)NC(Cc3ccc4ccccc4c3)C(=O)NCCCCC(NC(=O)NC(CCC(=O)O)C(=O)O)C(=O)O)CC2)CCN(CC(=O)[O-])CC1.[68Ga+3] (stereo not shown) [^68Ga-PSMA-617]
SUV mean Blood pool, mediastinal (prostate cancer patients [4]; 1 h p.i.): 2.5
SUV mean Bone metastasis (prostate cancer patients [4]; 1 h p.i.): 9.4
SUV mean Colon (prostate cancer patients [4]; 1 h p.i.): 3.5
SUV mean Gluteal muscle (prostate cancer patients [4]; 1 h p.i.): 0.7
SUV mean Kidneys (prostate cancer patients [4]; 1 h p.i.): 15.6
SUV mean Lacrimal gland (prostate cancer patients [4]; 1 h p.i.): 4.9
SUV mean Liver (prostate cancer patients [4]; 1 h p.i.): 3.3
SUV mean Lymph node (prostate cancer patients [4]; 1 h p.i.): 7.1
SUV mean Nasal mucosa (prostate cancer patients [4]; 1 h p.i.): 2.9
SUV mean Parotid gland (prostate cancer patients [4]; 1 h p.i.): 10.4
SUV mean Proximal small intestine (prostate cancer patients [4]; 1 h p.i.): 4.7
SUV mean Spleen (prostate cancer patients [4]; 1 h p.i.): 4.3
SUV mean Sublingual gland (prostate cancer patients [4]; 1 h p.i.): 4.6
SUV mean Submandibular gland (prostate cancer patients [4]; 1 h p.i.): 10
SUV mean Blood pool, mediastinal (prostate cancer patients [4]; 3 h p.i.): 2.4
SUV mean Bone metastasis (prostate cancer patients [4]; 3 h p.i.): 6.3
SUV mean Colon (prostate cancer patients [4]; 3 h p.i.): 4.0
SUV mean Gluteal muscle (prostate cancer patients [4]; 3 h p.i.): 0.7
SUV mean Kidneys (prostate cancer patients [4]; 3 h p.i.): 17.0
SUV mean Lacrimal gland (prostate cancer patients [4]; 3 h p.i.): 5.9
SUV mean Liver (prostate cancer patients [4]; 3 h p.i.): 2.7
SUV mean Lymph node (prostate cancer patients [4]; 3 h p.i.): 13.5
SUV mean Nasal mucosa (prostate cancer patients [4]; 3 h p.i.): 3.4
SUV mean Parotid gland (prostate cancer patients [4]; 3 h p.i.): 13.1
SUV mean Proximal small intestine (prostate cancer patients [4]; 3 h p.i.): 5.5
SUV mean Spleen (prostate cancer patients [4]; 3 h p.i.): 3.5
SUV mean Sublingual gland (prostate cancer patients [4]; 3 h p.i.): 4.0
SUV mean Submandibular gland (prostate cancer patients [4]; 3 h p.i.): 12.4
Specific lysate (internalization) (C4-2 cells; [5]): 15.5 ± 3.1 %IA/10^6 cells
